One assay addresses T1, GCNF LBD Y336F (Homo sapiens, UniProt Q15406, Y336F).
T1 construct: Human GCNF (NR6A1) LBD (residues 248-480); hexahistidine tag with 3C protease site; made in house; host or cells: E. coli BL(21) DE3
T1 sequence (Q15406 248-480 Y336F): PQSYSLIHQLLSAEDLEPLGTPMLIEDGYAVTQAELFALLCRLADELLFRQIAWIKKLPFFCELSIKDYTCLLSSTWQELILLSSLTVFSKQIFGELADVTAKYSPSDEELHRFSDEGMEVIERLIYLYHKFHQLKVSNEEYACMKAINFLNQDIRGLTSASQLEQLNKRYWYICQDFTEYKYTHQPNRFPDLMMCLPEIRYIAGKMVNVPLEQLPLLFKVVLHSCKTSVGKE
The experiment in a line: DSF of GCNF LBD mutant Y336F. Format: binding. The settings on record: 5 mM protein with 20 mM ligand as printed. The method, then:
DSF Assay. GCNF LBD (5 μM) were mixed with 1× Sypro orange (Invitrogen) in DSF buffer (50 mM HEPES, 50 mM KCl, 5 mM TCEP, 0.5 mM EDTA, pH 7.5). […] Ten microliters (10 μL)×5 replicates for each sample were plated on 384-well PCR microplate. No protein control and no ligand references were also run simultaneously in 5 replicates on the same plate. A total of 450 compounds (Life Chemicals) previously selected from a nuclear-receptor-biased library targeting REV-ERB were analyzed. Thermal stability was assessed on a Quantstudio 6 instrument (Biosystems) by ramping the temperature from 25° C. to 95° C. at 0.05° C./s and protein melt shifts were subsequently quantified by Boltzmann-derived melting temperature (Tm) using the Protein Thermal Shift (ThermoFisher) software. Positive hits were identified when a thermal shift (ΔTm) of at least 2° C. was observed.

Assay [1] concerns the target T2, GCNF LBD with SMRT ID2 corepressor peptide (Homo sapiens, UniProt Q15406).
T2 construct: Human GCNF (NR6A1) LBD (residues 248-480); made in house; host or cells: E. coli BL(21) DE3
The experiment in a line: FP ligand titration assay, SMRT ID2 peptide recruitment. Format: biochemical. The conditions noted are these: 20 μM GCNF LBD. The method, then: FP Assay. Fluorescence polarization (FP) assays were performed in triplicate on a 384-well Corning 3820 black opaque plate using a Biotek Synergy Neo2 HTS multimode microplate reader at excitation and emission wavelengths of 485 nm and 538 nm, respectively. Data were analyzed and plotted using GraphPad Prism as mean±SEM.
For the FP ligand titration assay, the aforementioned N-terminus fluorescein-tagged corepressor peptides were diluted to 500 nM from a 100 μM DMSO stock in the presence of 20 μM GCNF LBD and ligand concentration points 30, 20, 13, 9, 6, 4, 2.6, 1.7 and 0 μM in assay buffer containing 50 mM HEPES (pH 7.5), 50 mM KCl, 5 mM TCEP, 0.5 mM EDTA and 0.005% Tween20. The relative polarization was plotted against log of ligand concentration (μM) and the half maximal effective concentration (EC50) values were derived via sigmoidal fit.

A further assay concerns the target T3, SF-1 (NR5A1) LBD (Homo sapiens, UniProt Q13285).
T3 construct: human SF-1 LBD (residues 219-461); hexahistidine tag with 3C protease site; made in house; host or cells: E. coli BL(21) DE3
Nature of the assay: DSF specificity assay, SF-1. Format: binding. The method, then: Protein Expression and Purification. Human GCNF (NR6A1) LBD (residues 248-480) and mutants F284A/F361A, human LRH-1 (NR5A2) LBD (residues 291-541), human RXRα LBD (residues 223-462), human COUP-TF I LBD (residues 184-410) and human SF-1 LBD (residues 219-461) were subcloned in pET45b(+) plasmid (Novagen) were expressed in E. coli BL(21) DE3 cells in terrific broth with 0.1 mg/mL ampicillin as 3C protease-cleavable hexahistidine-tagged fusion proteins. The bacterial culture was grown at 37° C. to an optical density of 0.8 to 1.0 at 600 nm. Protein expression was induced by adding 1 mM IPTG and was allowed to proceed for 14 h at 22° C. […]
DSF Assay. […] A total of 450 compounds (Life Chemicals) previously selected from a nuclear-receptor-biased library targeting REV-ERB were analyzed. Thermal stability was assessed on a Quantstudio 6 instrument (Biosystems) by ramping the temperature from 25° C. to 95° C. at 0.05° C./s and protein melt shifts were subsequently quantified by Boltzmann-derived melting temperature (Tm) using the Protein Thermal Shift (ThermoFisher) software. […]

The target of assay [2] is T4, chimeric Gal4-DBD human GCNF-LBD (Homo sapiens, UniProt Q15406).
T4 construct: expressed in transfected cells; host or cells: HEK293
T4 sequence (Q15406 249-480 limits assumed): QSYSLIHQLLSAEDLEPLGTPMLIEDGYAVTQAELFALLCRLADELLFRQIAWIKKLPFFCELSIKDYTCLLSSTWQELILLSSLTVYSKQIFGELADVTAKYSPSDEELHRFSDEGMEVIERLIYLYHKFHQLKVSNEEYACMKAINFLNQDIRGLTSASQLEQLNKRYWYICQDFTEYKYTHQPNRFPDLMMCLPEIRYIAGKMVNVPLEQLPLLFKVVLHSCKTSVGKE
Nature of the assay: Luciferase cotransfection reporter assay in HEK293 cells. It is filed as cell-based. The conditions noted are these: read-out: IC50, suppression of GCNF transactivation. The method, then:
Cell Culture, Cotransfection Assays, and QPCR Analysis. Cotransfection assays were performed in HEK293 cells as previously described (Griffett et al., 2013; Wu et al., 2003; Savkur et al., 2003). Briefly, for dose-response cotransfection assays, a chimeric Gal4-DBD human GCNF-LBD in the pBIND vector was cotransfected with pGL4.35[luc2P/9XGAL4UAS/Hygro] vector (Promega). All cotransfections were normalized to renilla (pGL4.73; Dual-Glo luciferase reagent; Promega) and subsequently DMSO for analysis.
(In general: A reporter such as luciferase makes a cellular process visible.)

The source of these data is patent US12478628B2, “Germ cell nuclear factor ligands and methods of use thereof” (Saint Louis University, priority 2020, dated 2025).

T2 sequence (Q15406 248-480): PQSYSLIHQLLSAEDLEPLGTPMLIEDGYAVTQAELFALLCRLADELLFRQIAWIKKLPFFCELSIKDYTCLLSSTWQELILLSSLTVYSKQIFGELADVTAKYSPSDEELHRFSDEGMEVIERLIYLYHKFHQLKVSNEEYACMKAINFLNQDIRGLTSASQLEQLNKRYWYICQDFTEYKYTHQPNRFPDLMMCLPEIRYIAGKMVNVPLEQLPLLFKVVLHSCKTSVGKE
T2 sequence (Q9Y618 2332-2354 partner limits assumed): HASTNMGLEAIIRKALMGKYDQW
T3 sequence (Q13285 219-461): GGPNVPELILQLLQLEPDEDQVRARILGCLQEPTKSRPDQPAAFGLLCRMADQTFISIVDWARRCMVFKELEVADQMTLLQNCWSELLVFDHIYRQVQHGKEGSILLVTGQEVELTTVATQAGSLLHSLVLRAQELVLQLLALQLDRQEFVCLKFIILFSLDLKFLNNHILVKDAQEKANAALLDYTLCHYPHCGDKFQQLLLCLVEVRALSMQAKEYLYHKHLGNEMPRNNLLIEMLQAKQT

For orientation: IC50 means the concentration at which inhibition is half-maximal. `Cc1ccc(-n2ncc3c(N4CCOCC4)nc(NCc4ccco4)nc32)cc1` [Ligand 34, N-[(furan-2-yl)methyl]-1-(4-methylphenyl)-4-(morpholin-4-yl)-1H-pyrazolo[3,4-d]pyrimidin-6-amine]: the “effect of substitution Y336F on ligand binding (DSF)” value on GCNF LBD Y336F is on record as “substantially affect the binding”. For the same molecule, the “effect on recruitment of SMRT ID2 to GCNF” value in assay [1] is listed as “increased the recruitment”. Also, the “change of Tm of SF-1 LBD” value at SF-1 (NR5A1) LBD was “did not significantly change”. In addition, in assay [2], the half-inhibitory concentration (IC50) is 1100 nM.
As for `O=C(Cn1cc(S(=O)(=O)c2ccccc2)c2ccccc21)N1CCc2ccccc21` [Ligand 80, 2-[3-(benzenesulfonyl)-1H-indol-1-yl]-1-(2,3-dihydro-1H-indol-1-yl)ethan-1-one], the “effect of substitution Y336F on ligand binding (DSF)” value on GCNF LBD Y336F was “only F361A significantly affect the binding of 80”. The “effect on recruitment of SMRT ID2 to GCNF” value in assay [1] is on record as “but not ligand 80, increased the recruitment of SMRT ID2”. Further, at SF-1 (NR5A1) LBD, the “change of Tm of SF-1 LBD” value was “did not significantly change”. Also, in assay [2], the IC50 worked out at 317 nM.
